Source: US8969310B2, “Potentiation of anticancer agents” (Angiochem Inc., priority 2005, dated 2015)
Like-named read-outs stand apart in the source and are kept apart here.

Experiments:
[1] = mouse, in vivo
Procedure: (§2) Briefly, the right common carotid of ketamine/xylazine (140/8 mg/kg i.p.) anesthetized mice was exposed and ligated at the level of the bifurcation of the common carotid, rostral to the occipital artery. The common carotid was then catheterized rostrally with polyethylene tubing filled with heparin (25 U/ml) and mounted on a 26-gauge needle. […] Prior to the perfusion, the contralateral blood flow contribution was eliminated by severing heart ventricles. […] Mice were then decapitated to terminate perfusion and the right hemisphere was isolated on ice before being subjected to capillary depletion.
(§3) After perfusion, the brain was further perfused for 60 sec with Ringer solution to wash the excess of radiolabeled molecules and then the right hemisphere was isolated on ice before being subjected to capillary depletion.

NCI-H460 cell-cycle = assay: NCI-H460 cell cycle measured by FACS; assay type: cell-based; conditions: NCI-H460, 24 hrs; Taxol 100 nM, TxlAn2 conjugate 30 nM
[2] = tested on: MDA-MB-468 breast cancer cell line; assay: In vitro cytotoxicity, MDA-MB-468; assay type: cell-based
U-87 glioblastoma cells = assay: Cell proliferation assay ([3H]-thymidine incorporation), U-87; assay type: cell-based, human; conditions: for IC50: Homo sapiens
Procedure: (§1) For the in vitro cell proliferation assay, between 2.5 and 5×10^4 of U87 or A549 cells were seeded in a 24 well tissue culture microplate in a final volume of 1 ml of medium with 10% serum and incubated for 24 hours at 37° C. and 5% CO2. The medium was then replaced with serum-free medium and incubated overnight. The next morning the drug was freshly dissolved in dimethyl sulfoxide (DMSO) and the medium was replaced with complete medium containing the drug at different concentrations in triplicates. The final concentration of DMSO was 0.1%. The control used is a microplate well with cells and without drug. The cells were incubated for 48 to 72 hrs at 37° C. and 5% CO2. After the incubation, the medium was changed and replaced with 1 ml of complete medium containing [^3H]-thymidine (1 μCi/assay). The plate was incubated at 37° C. and 5% CO2 for 4 hrs. The medium was removed and the cells washed with PBS heated at 37° C. The cells were fixed with a mix of ethanol:acetic acid (3;1), then washed with water and precipitated 3 times with 10% of ice-cold TCA (trichloroacetic acid). Finally 500 μl of PCA (perchloric acid) were added to the wells and the microplates were heated for 30 min at 65° C. and 30 min at 75° C. The contents of each well was then transferred in a scintillation vial with 10 ml of scintillation cocktail and the activity was measured in CPM (count per minute) on a liquid scintillation counter Tri-Carb from Packard.
The anti-proliferatice activity of the conjugate against cancer cells in vitro was further assessed.

[3] = tested on: BT-474 breast cancer cell line; assay: In vitro cytotoxicity, BT-474; assay type: cell-based
[4] = comparator products; data based on rat GLP toxicity programs; cited from earlier work
[5] = tested on: MDA-MB-231 breast cancer cell line; assay: In vitro cytotoxicity, MDA-MB-231; assay type: cell-based
[6] = tested on: HCC1954 breast cancer cell line; assay: In vitro cytotoxicity, HCC1954; assay type: cell-based
[7] = tested on: Calu-3 lung carcinoma cells; assay: Cell proliferation assay, Calu-3; assay type: cell-based; conditions: Homo sapiens, read-out: IC50, effect on cell proliferation
U-118 glioblastoma cells = assay: Cell proliferation assay ([3H]-thymidine incorporation), U-118; assay type: cell-based; conditions: read-out: IC50, effect on cell proliferation
[8] = tested on: SK-HEP-1 hepatocarcinoma cells; assay: In vitro cytotoxicity, SK-HEP-1; assay type: cell-based, human
[9] = tested on: RBE4 endothelial cells from rat brain; assay: Cell proliferation assay, RBE4; assay type: cell-based; conditions: read-out: IC50, effect on cell proliferation
[10] = Preliminary comparative toxicity in beagle dogs
[11] = Tissue distribution and pharmacokinetics after i.v. bolus (AUC0-4); assay type: in vivo, mice; conditions: equivalent to 5 mg/kg of Taxol
Procedure: The unconjugated anticancer drug and the conjugates were injected intra-veinously (i.v.) in mice as a bolus. Tissues were collected at different times (0.25, 0.5, 1 and 4 hrs) and homogenized. […] Radioactivity associated with the tissues was therefore quantified. The area under the curve (AUC0-4) was estimated using the Prism software and was plotted for the different tissues (FIG. 10).

[12] = tested on: A549 lung carcinoma cells; assay: Cell proliferation assay ([3H]-thymidine incorporation), A549; assay type: cell-based; conditions: Homo sapiens, read-out: IC50, effect on cell proliferation
Procedure: as §1, with “Finally 500 μl of PCA (perchloric acid) were added to the wells and the microplates were heated for 30 min at 65° C. and 30 min at 75° C.” left out, “Packard. […]” for “Packard.”

[13] = tested on: NCI-H460 subcutaneous tumor; assay: Subcutaneous NCI-H460 tumor growth; assay type: in vivo, mice; conditions: i.v.
Procedure: Briefly, mice received a subcutaneous injection of 2.5×10^6 human U87 glioma cells or NCI-H460 cells. […] Treatments were then administered twice a week until animals were sacrificed. Mice were monitored every day for clinical symptoms and weight loss. Tumor volume was estimated with a kaliper and the following equation (tumor volume=π/2×(length (mm)×width^2 (mm)).
In the first subcutaneous tumor growth study, NCI-H460 cells were implanted in mice right flank (FIG. 22A).

[14] = tested on: NCI-H460 lung carcinoma cells; assay: Cell proliferation assay ([3H]-thymidine incorporation), NCI-H460; assay type: cell-based; conditions: for IC50: Homo sapiens
P-gp (human MDR1) = P-gp (human MDR1) (Homo sapiens, UniProt P08183); assay: Accumulation in MDCK-MDR1 cells with or without cyclosporin A (P-gp substrate test)
Sequence of P-gp (human MDR1) (P08183 whole entry): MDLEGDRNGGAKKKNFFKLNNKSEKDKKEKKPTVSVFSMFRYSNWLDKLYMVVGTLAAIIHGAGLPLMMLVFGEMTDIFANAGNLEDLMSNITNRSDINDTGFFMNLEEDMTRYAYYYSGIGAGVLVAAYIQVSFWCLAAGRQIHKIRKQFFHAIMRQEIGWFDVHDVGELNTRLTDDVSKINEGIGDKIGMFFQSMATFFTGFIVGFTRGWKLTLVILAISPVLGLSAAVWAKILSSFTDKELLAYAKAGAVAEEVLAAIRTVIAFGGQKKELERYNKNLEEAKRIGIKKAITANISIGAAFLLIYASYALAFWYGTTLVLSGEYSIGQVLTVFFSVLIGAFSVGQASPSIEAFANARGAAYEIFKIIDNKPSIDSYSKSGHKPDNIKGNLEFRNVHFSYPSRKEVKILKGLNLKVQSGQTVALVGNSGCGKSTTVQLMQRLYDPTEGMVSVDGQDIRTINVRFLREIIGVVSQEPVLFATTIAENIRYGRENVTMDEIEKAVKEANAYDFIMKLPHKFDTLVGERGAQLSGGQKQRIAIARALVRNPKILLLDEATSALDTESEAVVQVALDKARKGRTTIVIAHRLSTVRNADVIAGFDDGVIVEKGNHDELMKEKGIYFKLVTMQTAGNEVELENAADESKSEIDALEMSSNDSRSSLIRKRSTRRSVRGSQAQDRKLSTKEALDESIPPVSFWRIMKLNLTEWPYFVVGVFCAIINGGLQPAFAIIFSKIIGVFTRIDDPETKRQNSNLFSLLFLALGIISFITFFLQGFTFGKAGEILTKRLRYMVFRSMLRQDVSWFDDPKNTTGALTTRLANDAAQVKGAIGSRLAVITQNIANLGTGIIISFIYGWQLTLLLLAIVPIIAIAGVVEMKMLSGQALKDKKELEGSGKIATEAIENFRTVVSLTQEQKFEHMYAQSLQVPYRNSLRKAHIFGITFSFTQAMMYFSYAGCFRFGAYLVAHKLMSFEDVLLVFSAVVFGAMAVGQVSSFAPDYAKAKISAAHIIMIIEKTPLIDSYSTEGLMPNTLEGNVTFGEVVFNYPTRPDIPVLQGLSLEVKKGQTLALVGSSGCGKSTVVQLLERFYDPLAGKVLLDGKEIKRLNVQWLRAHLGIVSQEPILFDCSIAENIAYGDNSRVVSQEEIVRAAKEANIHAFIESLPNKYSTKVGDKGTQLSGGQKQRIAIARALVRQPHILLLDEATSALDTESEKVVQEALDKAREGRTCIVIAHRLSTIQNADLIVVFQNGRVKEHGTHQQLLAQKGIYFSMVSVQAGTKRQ
Procedure: In order to determine whether the conjugates of the present invention were P-gp substrates or not, MDCK cells were stably transfected with human MDR1 (MDCK-MDR1) and were subsequently incubated with unconjugated-anticancer drug or with the conjugates of the present invention. […] After the incubation, cells were washed and accumulation of radioactivity inside the cells or intracellular fluorescence was quantified. The increased in the accumulation of these drugs is expressed in term of x-fold compared to their respective control measured in the absence of CsA. Thus, the control value for each drug was set to 1-fold.

[15] = In situ mouse brain perfusion; conditions: 5 min perfusion, [125I]-labelled, FIG. 7
Procedure: as §2, §3

LRP = target: T1, LRP (Mus musculus, UniProt Q91ZX7); assay: [125I]-RAP uptake in MEF-1 (LRP+) and PEA-13 (LRP-) fibroblasts; assay type: cell-based
T1 construct: endogenous in cells; host or cells: MEF-1 fibroblasts (LRP-positive), with PEA-13 fibroblasts (LRP-negative) as subtraction control
Procedure: The LRP-dependent accumulation of [^125I]-RAP was calculated by substracted the results for the uptake obtained with PEA-13 cells from the results obtained with MEF-1;

[16] = various aprotinin concentrations

**Q.** Which “Accumulation into brain parenchyma compared with vascular marker [14C]-inulin” value [1] does the source give for `C[C@@H](O)[C@H](N)C(=O)N[C@@H](Cc1ccccc1)C(=O)N[C@@H](Cc1ccccc1)C(=O)N[C@@H](Cc1ccc(O)cc1)C(=O)NCC(=O)NCC(=O)N[C@@H](CO)C(=O)N[C@@H](CCCNC(=N)N)C(=O)NCC(=O)N[C@@H](CCCCN)C(=O)N[C@@H](CCCNC(=N)N)C(=O)N[C@@H](CC(N)=O)C(=O)N[C@@H](CC(N)=O)C(=O)N[C@@H](Cc1ccccc1)C(=O)N[C@@H](CCCCN)C(=O)N[C@H](C(=O)N[C@@H](CCC(=O)O)C(=O)N[C@@H](CCC(=O)O)C(=O)N[C@@H](Cc1ccc(O)cc1)C(=O)O)[C@@H](C)O` [Angiopep-2] here?
**A.** higher than that of the vascular marker

**Q.** Which results are given for `CC(=O)O[C@H]1C(=O)[C@@]2(C)[C@H]([C@H](OC(=O)c3ccccc3)[C@]3(O)C[C@H](OC(=O)[C@H](O)[C@@H](NC(=O)c4ccccc4)c4ccccc4)C(C)=C1C3(C)C)[C@]1(OC(C)=O)CO[C@@H]1C[C@@H]2O` [Taxol]?
**A.** Effect on cell cycle (NCI-H460 cell-cycle): induce a blockade of NCI-H460 cell in G2/M phase; Residual survival % Mean [2]: 54.26%; IC50 ([2]; Homo sapiens): 13.5 nM; IC50 (U-87 glioblastoma cells; 72 h, read-out: IC50, proliferation of glioblastoma cells (U-87)): ~10 nM; IC50 (U-87 glioblastoma cells; read-out: IC50, effect on cell proliferation): 9.5 nM; IC50 (U-87 glioblastoma cells; U-87 MG, Table 3B, read-out: IC50 (nM) Mean): 12.9 nM; Residual survival % Mean (U-87 glioblastoma cells; U-87 MG): 40.35%; Residual survival % Mean [3]: 52.24%; IC50 ([3]; Homo sapiens, Table 3B): 62.9 nM; MTD [4]: 8 mg/kg; Residual survival % Mean [5]: 45.62%; IC50 ([5]; Homo sapiens): 17.6 nM; Residual survival % Mean [6]: 48.82%; IC50 ([6]; Homo sapiens): 6.12 nM; IC50 [7]: 17.2 nM; IC50 (U-118 glioblastoma cells): 7.2 nM; Residual survival % Mean [8]: 55.18%; IC50 ([8]; Homo sapiens, SK-HEP1): 8.84 nM; IC50 [9]: 137 nM; Platelets ([10]; 4-days post-treatment): 200 ×109 cells/L; Reticulocytes ([10]; 4-days post-treatment): 0.011 ×1012 cells/L; White Blood Cells ([10]; 4-days post-treatment): 4.3 ×109 cells/L; Platelets ([10]; 8-days post treatment): 340 ×109 cells/L; Reticulocytes ([10]; 8-days post treatment): 0.11 ×1012 cells/L; White Blood Cells ([10]; 8-days post treatment): 8.7 ×109 cells/L; Platelets ([10]; Pre-treatment): 250 ×109 cells/L; Reticulocytes ([10]; Pre-treatment): 0.031 ×1012 cells/L; White Blood Cells ([10]; Pre-treatment): 9.7 ×109 cells/L; AUC 0-4 ([11]; Brain): 0.07 μg/g of tissue; AUC 0-4 ([11]; Eye): 0.57 μg/g of tissue; AUC 0-4 ([11]; Heart): 2.5 μg/g of tissue; AUC 0-4 ([11]; Kidney): 8.0 μg/g of tissue; AUC 0-4 ([11]; Liver): 22 μg/g of tissue; AUC 0-4 ([11]; Lung): 1.1 μg/g of tissue; IC50 [12]: 3.6 nM; Tumor growth Δ ([13]; Day 0 to Day 11): 371 ± 58 mm^3; T/C ([13]; Day 11): 62%; Tumor volume, Day 0 ([13]; baseline, equivalent of 10 mg/kg of Taxol): 112 ± 12 mm^3; Tumor volume, Day 11 ([13]; equivalent of 10 mg/kg of Taxol, twice a week): 483 ± 63 mm^3; IC50 ([14]; NCI-H460, read-out: IC50, effect on cell proliferation): 9.3 nM; IC50 ([14]; NCI-H460, Table 3B, read-out: IC50 (nM) Mean): 6.61 nM; Residual survival % Mean ([14]; NCI-H460): 24.98%; P-gp substrate or not (P-gp (human MDR1); MDCK-MDR1): are P-gp substrates

**Q.** With rhodamine as the compound, how does the “Increase in accumulation in the presence of CsA, x-fold of control without CsA” value (P-gp (human MDR1); MDCK-MDR1, 1 hr 37° C., 10 μM cyclosporin A) read?
**A.** 7.5 fold

**Q.** What about the “P-gp substrate or not” value (P-gp (human MDR1); MDCK-MDR1, with or without CsA) of the same compound?
**A.** are P-gp substrates

**Q.** What does the source list for aprotinin?
**A.** Initial brain uptake (transport rate) compared with transferrin [15]: highest initial transport rate than transferrin; LRP-dependent accumulation of [125I]-RAP (MEF-1 minus PEA-13) (LRP; excess, 25 μM, FIG. 18): affect the LRP-dependent accumulation of [^125I]-RAP; Uptake of [125I]-RAP in LRP-negative cells (PEA-13) (LRP; [16]): almost unaffected; Uptake of [125I]-RAP in LRP-positive cells (MEF-1) (LRP; [16]): inhibited the transport of [^125I]-RAP in positive LRP cells in a dose-dependent manner

**Q.** Which “P-gp substrate or not” value (P-gp (human MDR1); MDCK-MDR1) does the source give for `CC[C@]1(O)C[C@@H]2CN(CCc3c([nH]c4ccccc34)[C@@](C(=O)OC)(c3cc4c(cc3OC)N(C)[C@H]3[C@@](O)(C(=O)OC)[C@H](OC(C)=O)[C@]5(CC)C=CCN6CC[C@]43[C@@H]65)C2)C1` [vinblastine] here?
**A.** are P-gp substrates
